Patent publication US20230212526A1, “PLURIPOTENT STEM CELL-DERIVED HEART ORGANOID” (Board of Trustees of Michigan State University, priority 2020, published 2023)

Key:
[1] = test system: human heart organoids (hHOs); assay: Cardiomyocyte differentiation in hHOs after initial CHIR99021 exposure (day 0, 24 hours), confocal TNNT2 quantification and beating; format: cell-based; settings: for TNNT2+ cells (cardiomyocyte content): read at day 15
Protocol: Self-assembling hHO differentiation. Accutase® (Innovative Cell Technologies) was used to dissociate PSCs for spheroid formation. After dissociation, cells were centrifuged at 300 g for 5 minutes and resuspended in Essential 8™ Flex medium containing 2 μM ROCK inhibitor Thiazovivin (Millipore Sigma). hPSCs were then counted using a Moxi Cell Counter (Orflo Technologies) and seeded at 10000 cells/well in round bottom ultra-low attachment 96-well plates (Costar) on day −2. The plate was then centrifuged at 100 g for 3 minutes and placed in an incubator at 37° C. and 5% CO2. After 24 hours (day −1), 50 μl of media was carefully removed from each well and 200 μl of fresh Essential 8™ Flex medium was added for a final volume of 250 μl/well. The plate was returned to the incubator for a further 24 hours. […] On day 1, 166 μl of media was removed and replaced with fresh RPMI 1640 with B27™ Supplement, minus insulin. On day 2, RPMI 1640 with B27™ Supplement, minus insulin containing Wnt-059 (Selleck) was added for a final concentration of 2 μM Wnt-059, and the samples were incubated for 48 hours. The media was changed on day 4 and day 6. On day 6, media was changed to RPMI 1640 with B27™ Supplement (Gibco). On day 7, a second 4 μM CHIR99021 exposure was conducted for 1 hour in RPMI 1640 with B27™ Supplement. Subsequently, media was changed every 48 hours until organoids were ready for analysis. Diabetic conditions were simulated by using basal RPMI media with 11.1 mM glucose and 58 nM insulin and compared with control media containing 3.5 mM glucose and 170 pM insulin.
Immunofluorescence. hHOs were transferred to microcentrifuge tubes (Eppendorf) using a cut 1000-μL pipette tip to avoid disruption to the organoids and fixed in 4% paraformaldehyde solution (dissolved in PBS) for 30 minutes at room temperature. Fixation was followed by three washes in PBS-Glycine (20 mM) and incubation in blocking/permeabilization solution (10% Donkey Normal Serum, 0.5% Triton™ X-100, 0.5% BSA in PBS) on a thermal mixer (Thermo Scientific) at 300 RPM at 4° C. overnight. hHOs were then washed three times in PBS and incubated with primary antibodies (see Table 1) in Antibody Solution (1% Donkey Normal Serum, 0.5% Triton™ X-100, 0.5% BSA in PBS) on a thermal mixer at 300 RPM at 4° C. for 24 hours. […]
(§1) Confocal microscopy and image analysis. Samples were imaged using two confocal laser scanning microscopes (Nikon Instruments A1 Confocal Laser Microscope; Zeiss LSM 880 NLO Confocal Microscope System) and images were analyzed using Fiji (hypertext transfer protocol secure//imagej.net/Fiji). For tissue region quantification in the organoids, DAPI positive cells were used for normalization against the target cell marker of interest across three z-planes throughout each organoid. […]

[2] = test system: human heart organoids (hHOs); assay: Second CHIR99021 exposure on day 7: epicardial cell and cardiomyocyte formation in hHOs (confocal quantification); format: cell-based
Protocol: Self-assembling hHO differentiation. Accutase® (Innovative Cell Technologies) was used to dissociate PSCs for spheroid formation. After dissociation, cells were centrifuged at 300 g for 5 minutes and resuspended in Essential 8™ Flex medium containing 2 μM ROCK inhibitor Thiazovivin (Millipore Sigma). hPSCs were then counted using a Moxi Cell Counter (Orflo Technologies) and seeded at 10000 cells/well in round bottom ultra-low attachment 96-well plates (Costar) on day −2. The plate was then centrifuged at 100 g for 3 minutes and placed in an incubator at 37° C. and 5% CO2. After 24 hours (day −1), 50 μl of media was carefully removed from each well and 200 μl of fresh Essential 8™ Flex medium was added for a final volume of 250 μl/well. The plate was returned to the incubator for a further 24 hours. On day 0, 166 μl (approximately ⅔ of total well volume) of media was removed from each well and 166 μl of RPMI 1640 with B27™ Supplement, minus insulin (Gibco) containing CHIR99021 (Selleck) was added at a final concentration of 4 μM/well along with BMP4 at 0.36 pM (1.25 ng/ml) and ActA at 0.08 pM (1 ng/ml) for 24 hours. On day 1, 166 μl of media was removed and replaced with fresh RPMI 1640 with B27™ Supplement, minus insulin. On day 2, RPMI 1640 with B27™ Supplement, minus insulin containing Wnt-059 (Selleck) was added for a final concentration of 2 μM Wnt-059, and the samples were incubated for 48 hours. The media was changed on day 4 and day 6. On day 6, media was changed to RPMI 1640 with B27™ Supplement (Gibco). […] Subsequently, media was changed every 48 hours until organoids were ready for analysis. Diabetic conditions were simulated by using basal RPMI media with 11.1 mM glucose and 58 nM insulin and compared with control media containing 3.5 mM glucose and 170 pM insulin.
Immunofluorescence. hHOs were transferred to microcentrifuge tubes (Eppendorf) using a cut 1000-μL pipette tip to avoid disruption to the organoids and fixed in 4% paraformaldehyde solution (dissolved in PBS) for 30 minutes at room temperature. […]
as §1

[3] = test system: FlipGFP transgenic iPSC-L1 derived hHOs; assay: FlipGFP apoptosis reporter in hHOs (effector caspase activation); format: cell-based, human; settings: 5 μM doxorubicin, positive control
Protocol: Lentiviral transduction. FlipGFP plasmid (Vector Builder) was transduced into a L1 iPSC line using a ZymoPURE™ II Plasmid Midiprep Kit (Fisher Scientific) according to manufacturer instructions. HEK293t were cultured in D10 media (DMEM+10% FBS+1% P/S) and later switched with reduced serum OptiMem™ (Gibco, Fisher Scientific) for 1 hour. Lipofectamine mixture (100 μl Lipofectamine 2000 (Thermo Fisher Scientific)+4 ml OptiMem™ sitting at room temperature for 5 minutes) was mixed with PLUS™ reagent mixture (200 μl PLUS™ reagent (Invitrogen, Fisher Scientific)+4 ml OptiMem™+20 μg lentiCRISPR plasmid+10 μg pMD2.gpVSVg (or pVSVgpMD2.g)+15 μg psPAX2) and was then added to the HEK293t cells and allowed to incubate at 37° C. for 6 hours. Following this, the media was changed to 30 ml D10+1% BSA per flask, without antibiotics. After 48-60 hours, the media was collected and centrifuged at 3000 rpm at 4° C. for 10 minutes. The supernatant was transferred to an Amicon® Filter Unit (Millipore-Sigma) and spun in a tabletop centrifuge at 3200 g for 30 minutes at 4° C. The flow through was dumped, and the process was repeated. The concentrated virus was aliquoted and stored at −80° C. Virus aliquot and polybrene (Fisher Scientific) were thawed at 37° C. Virus and polybrene were delivered to iPSC-L1s at low- to mid-confluences and incubated overnight. […]

[4] = single 2 μM CHIR99021 for 1 hour on day 7, read at day 15

Structure (SMILES) | TNNT2+ cells (cardiomyocyte content) ([1]; 4 μM CHIR99021 on day 0 for 24 hours) [%] | functional properties (beats per minute, percentage of beating hHOs) ([1]; 4 μM versus 6.6 μM and 8 μM CHIR99021) | TNNT2+ cells (cardiomyocyte content) ([1]; 6.6 μM CHIR99021 on day 0 for 24 hours) [%] | TNNT2+ cells (cardiomyocyte content) ([1]; 8 μM CHIR99021 on day 0 for 24 hours) [%] | formation of cardiac cell types other than epicardial cells (cardiomyocytes) ([2]; high concentrations or long exposure times of second exposure) | formation of proepicardium and epicardial cells ([2]; second exposure on day 7, 2-8 μM, 1-48 hours) | cardiomyocytes (TNNT2+ area) [2, 4] [%] | epicardial cells (WT1+/TJP1+ area) [2, 4] | apoptosis (FlipGFP fluorescence) [3] | apoptosis (FlipGFP fluorescence) ([3]; listed as Doxorubicin)
Cc1c[nH]c(-c2cnc(NCCNc3ccc(C#N)cn3)nc2-c2ccc(Cl)cc2Cl)n1 [CHIR99021] | 64±5 | best functional properties of the three concentrations | 9.6±5 | 2.4±2 | marked inhibition | robustly promoted the formation of proepicardium and epicardial cells | 60 | 10-20% | – | –
COc1cccc2c1C(=O)c1c(O)c3c(c(O)c1C2=O)C[C@@](O)(C(=O)CO)C[C@@H]3O[C@H]1C[C@H](N)[C@H](O)[C@H](C)O1 [doxorubicin] | – | – | – | – | – | – | – | – | high apoptosis | evident signs of cell death
